The MIC is the lowest concentration that inhibits growth of the organism.

Experimental findings from US5024839A, “Dactylocycline A and dactylocycline B” (E. R. Squibb & Sons, Inc., priority 1987, dated 1991) are described below.

Values after ≈ are worked out from the molar mass of the structure shown.

Common to all, as to assay type: cell-based
In experiment [1] the test system is gram-positive bacteria, including tetracycline-resistant bacteria. Description: Activity against gram-positive bacteria. On the procedure:
(§1) The following methodology was used to determine the minimum inhibitory concentration (hereinafter referred to as MIC) of the compounds of this invention. The test organisms were grown in 20 ml of Antibiotic Assay Broth (Difco) by inoculating the broth (in tubes) with a loopful of the organism from a BHI (Difco) agar slant. The inoculated tubes were incubated at 37° C. for 18 to 24 hours. These cultures are assumed to contain 10^9 colony forming units (CFU) per ml. The cultures were diluted 1:100 to give a final inoculum level of 10^7 CFU; dilutions were made with Yeast Beef Broth (Difco). The test compounds were dissolved in an appropriate diluent at a concentration of 1,000 μg/ml. Two-fold dilutions were made in Yeast Beef Broth (Difco) resulting in a range from 1000 μg/ml to 0.5 μg/ml. A 1.5 ml portion of each dilution was placed into individual petri dishes to which 13.5 ml of K-10 agar was added. The composition of K-10 agar is:
(§2) The final drug concentration in the agar ranged from 100 μg/ml to 0.05 μg/ml. Organism growth control plates containing agar only were prepared and inoculated before and after the test plates. The organisms were applied to agar surface of each plate with a Denly Multipoint Inoculator, which delivers approximately 10^4 CFU on the agar surface.
The plates were incubated at 37° C. for 18 hours and the MICs determined. […]

In experiment [2] the test system is Staphylococcus aureus SGB 42. Description: MIC (agar dilution, K-10 agar). The method, then:
as §1, §2
(§3) The plates were incubated at 37° C. for 18 hours and the MICs determined. The MIC is the lowest concentration of compound inhibiting growth of the organism.
(§4) The test organisms chosen for this study are pairs of tetracycline-sensitive and tetracycline-resistant strains.
On the technique in general: Agar dilution tests growth on a series of plates holding different concentrations.

The test system of experiment [3] is Staphylococcus aureus SC2399. Kind of experiment: MIC (agar dilution, K-10 agar). The method, then:
as §1, §2, §3, §4

The subject of experiment [4] is Streptococcus faecalis SC9776. Kind of experiment: MIC (agar dilution, K-10 agar). On the procedure:
as §1, §2, §3, §4

Experiment [5] deals with Streptococcus faecalis SC9011. Kind of experiment: MIC (agar dilution, K-10 agar). On the procedure: as §1, §2, §3, §4
Experiment [6] has as its system Staphylococcus epidermidis SC9052. Description: MIC (agar dilution, K-10 agar). The method, then: as §1, §2, §3, §4
The test system of experiment [7] is Staphylococcus aureus SGB 45. Description: MIC (agar dilution, K-10 agar). The method, then: as §1, §2, §3, §4
Experiment [8] has as its system Staphylococcus epidermidis SC9087. Description: MIC (agar dilution, K-10 agar). The method, then: as §1, §2, §3, §4
For experiment [9], the system named is Staphylococcus aureus SC10016. Description: MIC (agar dilution, K-10 agar). The method, then:
as §1, §2, §3, §4

Setting [10] is: Staphylococcus aureus SGB 42, K-10 agar, approximately 10^4 CFU, 37° C., 18 hours.
Where [11] appears, read: Staphylococcus aureus SC2399, K-10 agar, approximately 10^4 CFU, 37° C., 18 hours.
Where [12] appears, read: Streptococcus faecalis SC9776, K-10 agar, approximately 10^4 CFU, 37° C., 18 hours.
The mark [13] stands for this setting: Streptococcus faecalis SC9011, K-10 agar, approximately 10^4 CFU, 37° C., 18 hours.
Setting [14] is: Staphylococcus epidermidis SC9052, K-10 agar, approximately 10^4 CFU, 37° C., 18 hours.
The mark [15] stands for this setting: Staphylococcus aureus SGB 45, K-10 agar, approximately 10^4 CFU, 37° C., 18 hours.
[16] abbreviates: Staphylococcus epidermidis SC9087, K-10 agar, approximately 10^4 CFU, 37° C., 18 hours.
[17] abbreviates: Staphylococcus aureus SC10016, K-10 agar, approximately 10^4 CFU, 37° C., 18 hours.

For the compound `COc1cc(O)c2c(c1Cl)[C@](C)(O[C@H]1C[C@](C)(NO)[C@@H](OC)[C@H](C)O1)[C@H]1C[C@@]3(O)[C@H](N(C)C)C(=O)C(C(N)=O)=C(O)[C@@]3(O)C(=O)C1=C2O` [Dactylocycline A], in experiment [1], the “activity against gram-positive bacteria” value was “active against gram-positive bacteria, including tetracycline-resistant bacteria”. Besides, the MIC in [2] (setting [10]) is 1.6 µg/mL (≈ 2.29 µM); in [3] (setting [11]), 1.6 µg/mL (≈ 2.29 µM); in [4] (setting [12]) it was 25 µg/mL (≈ 35.8 µM); in experiment [5] (setting [13]), 25 µg/mL (≈ 35.8 µM); in experiment [6] (setting [14]), 6.3 µg/mL (≈ 9.02 µM); in experiment [7] (setting [15]), 3.1 µg/mL (≈ 4.44 µM). In addition, the MIC in experiment [8] (setting [16]) is 3.1 µg/mL (≈ 4.44 µM); in [9] (setting [17]) it was 6.3 µg/mL (≈ 9.02 µM).
For the compound `COc1cc(O)c2c(c1Cl)C(C)(OC1CC(C)([N+](=O)[O-])C(OC)C(C)O1)C1CC3(O)C(N(C)C)C(=O)C(C(N)=O)=C(O)C3(O)C(=O)C1=C2O` (centres unmarked) [Dactylocycline B], the “activity against gram-positive bacteria” value in experiment [1] is reported as “active against gram-positive bacteria, including tetracycline-resistant bacteria”. Further, the MIC in [2] (setting [10]) came out at 3.1 µg/mL (≈ 4.35 µM); in experiment [3] (setting [11]), 6.3 µg/mL (≈ 8.85 µM); in experiment [4] (setting [12]) it was 6.3 µg/mL (≈ 8.85 µM); in experiment [5] (setting [13]), 6.3 µg/mL (≈ 8.85 µM); in experiment [6] (setting [14]), 3.1 µg/mL (≈ 4.35 µM); in experiment [7] (setting [15]), 3.1 µg/mL (≈ 4.35 µM). For the same compound, the MIC in [8] (setting [16]) and in experiment [9] (setting [17]) was 3.1 µg/mL (≈ 4.35 µM) each time.
With `CN(C)[C@@H]1C(O)=C(C(N)=O)C(=O)[C@@]2(O)C(O)=C3C(=O)c4c(O)cccc4[C@@](C)(O)[C@H]3C[C@@H]12` [Tetracycline, reference compound], the MIC was 0.2 µg/mL (≈ 0.45 µM) in experiment [2] (Staphylococcus aureus, SGB42, 18 h); 0.4 µg/mL (≈ 0.9 µM) in [3] (Staphylococcus aureus, SC2399, 18 h); above 100 µg/mL in [4] (Enterococcus faecalis, SC9776, 18 h); 1.6 µg/mL (≈ 3.6 µM) in experiment [5] (Enterococcus faecalis, SC9011, 18 h); 0.8 µg/mL (≈ 1.8 µM) in experiment [6] (Staphylococcus epidermidis, SC9052, 18 h); 100 µg/mL (≈ 225 µM) in experiment [7] (Staphylococcus aureus, SGB45, 18 h). Further, the MIC in experiment [8] (Staphylococcus epidermidis, SC9087, 18 h) was 50 µg/mL (≈ 113 µM); in [9] (Staphylococcus aureus, SC10016, 18 h), 100 µg/mL (≈ 225 µM).
